Laboratory results as given in PubChem BioAssay AID330 (DTP/NCI, 2004).
Where “and” joins values, the source holds several entries; their conditions need not be identical. Equal entries are not always repeated. Inconclusive results and toxic doses are left out.

System: P388 leukemia ip, CD2F1 mice, survival T/C
Test: NCI In Vivo Anticancer Drug Screen. Data for tumor model P388 Leukemia (intraperitoneal) in CD2F1 (CDF1) mice
Conditions: endpoint: median survival time, higher = longer survival
Summary of the method: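 Mice carrying the transplanted tumor received test compound or vehicle. Survival was recorded in each group, and the value is the treated-group measurement divided by that of the vehicle-treated control group.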

[1] = dose: 100.0 mg/kg/injection, schedule: Q01DX001 (ip), vehicle: Klucel (hydroxypropylcellulose) (HPC)
[2] = dose: 200.0 mg/kg/injection, schedule: Q01DX001 (ip), vehicle: Klucel (hydroxypropylcellulose) (HPC)
[3] = dose: 400.0 mg/kg/injection, schedule: Q01DX001 (ip), vehicle: Klucel (hydroxypropylcellulose) (HPC)

## CCN(CC)CC(O)CNc1ncnc(N)c1C(=C(C)C)c1ccc(Cl)cc1 (stereo not drawn)
dose: 25.0 mg/kg/injection, schedule: Q01DX009 (ip), vehicle: saline with Tween-80
  T/C: 100 % of control
dose: 50.0 mg/kg/injection, schedule: Q01DX009 (ip), vehicle: saline with Tween-80
  T/C: 100 % of control
dose: 100.0 mg/kg/injection, schedule: Q01DX009 (ip), vehicle: saline with Tween-80
  T/C: 90 % of control

## O=C1OC(c2ccccc2)(c2ccccc2)c2cc3c(cc21)C(=O)OC3(c1ccccc1)c1ccccc1
dose: 50.0 mg/kg/injection, schedule: Q04DX002 (ip), vehicle: saline
  T/C: 102 % of control
dose: 100.0 mg/kg/injection, schedule: Q04DX002 (ip), vehicle: saline
  T/C: 100 % of control
dose: 200.0 mg/kg/injection, schedule: Q04DX002 (ip), vehicle: saline
  T/C: 98 % of control

## CN(Cc1cnc2nc(N)nc(N)c2n1)c1ccc(C(=O)NC(CCC(=O)OCc2c(Cl)cccc2Cl)C(=O)OCc2c(Cl)cccc2Cl)cc1 (stereo not drawn)
dose: 3.75 mg/kg/injection, schedule: Q01DX005 (ip), vehicle: saline with Tween-80
  T/C: 168 % of control
dose: 7.5 mg/kg/injection, schedule: Q01DX005 (ip), vehicle: saline with Tween-80
  T/C: 207 % of control and 237 % of control
dose: 15.0 mg/kg/injection, schedule: Q01DX005 (ip), vehicle: saline with Tween-80
  T/C: 105 % of control and 92 % of control
dose: 30.0 mg/kg/injection, schedule: Q01DX005 (ip), vehicle: saline with Tween-80
  T/C: 87 % of control

## CC(C)(C)C1CCC2(CC1)OCC1CCCN12 (stereo not drawn)
dose: 25.0 mg/kg/injection, schedule: Q01DX005 (ip), vehicle: saline with Tween-80
  T/C: 88 % of control
dose: 50.0 mg/kg/injection, schedule: Q01DX005 (ip), vehicle: saline with Tween-80
  T/C: 88 % of control
dose: 100.0 mg/kg/injection, schedule: Q01DX005 (ip), vehicle: saline with Tween-80
  T/C: 95 % of control

## CN1C(=O)OC(c2ccc(Cl)cc2)C1=O (stereo not drawn)
dose: 25.0 mg/kg/injection, schedule: Q01DX005 (ip), vehicle: Klucel (hydroxypropylcellulose) (HPC)
  T/C: 100 % of control
dose: 50.0 mg/kg/injection, schedule: Q01DX005 (ip), vehicle: Klucel (hydroxypropylcellulose) (HPC)
  T/C: 100 % of control
dose: 100.0 mg/kg/injection, schedule: Q01DX005 (ip), vehicle: Klucel (hydroxypropylcellulose) (HPC)
  T/C: 107 % of control
dose: 200.0 mg/kg/injection, schedule: Q01DX005 (ip), vehicle: Klucel (hydroxypropylcellulose) (HPC)
  T/C: 100 % of control

## O=C1C2CCCC1C(c1ccccc1Cl)NC2c1ccccc1Cl (stereo not drawn)
dose: 100.0 mg/kg/injection, schedule: Q04DX003 (ip), vehicle: saline
  T/C: 89 % of control
dose: 200.0 mg/kg/injection, schedule: Q04DX003 (ip), vehicle: saline
  T/C: 96 % of control
dose: 400.0 mg/kg/injection, schedule: Q04DX003 (ip), vehicle: saline
  T/C: 94 % of control

## CC(=O)NCC1(C)CCCC2(C)C3=CC(=O)C(C(C)C)=CC3(O)CCC12 (stereo not drawn)
[1]
  T/C: 98 % of control
[2]
  T/C: 90 % of control
[3]
  T/C: 94 % of control

## CCOC(=O)CSc1nnc(-c2cc(OC)c(OC)c(OC)c2)o1
[1]
  T/C: 98 % of control
[2]
  T/C: 104 % of control
[3]
  T/C: 92 % of control

## COC1(OC)C2(Cl)CC3C4(C)OC(Cl)(C31Cl)C42Cl (stereo not drawn)
dose: 60.0 mg/kg/injection, schedule: Q01DX005 (ip), vehicle: Klucel (hydroxypropylcellulose) (HPC)
  T/C: 105 % of control
dose: 120.0 mg/kg/injection, schedule: Q01DX005 (ip), vehicle: Klucel (hydroxypropylcellulose) (HPC)
  T/C: 101 % of control
dose: 240.0 mg/kg/injection, schedule: Q01DX005 (ip), vehicle: Klucel (hydroxypropylcellulose) (HPC)
  T/C: 100 % of control

## C=COC(=O)C(Cc1cc(OC)c(OC)c(OC)c1)NC(=O)OCc1ccccc1 (stereo not drawn)
dose: 100.0 mg/kg/injection, schedule: Q04DX002 (ip), vehicle: saline with Tween-80
  T/C: 102 % of control
dose: 200.0 mg/kg/injection, schedule: Q04DX002 (ip), vehicle: saline with Tween-80
  T/C: 101 % of control
dose: 400.0 mg/kg/injection, schedule: Q04DX002 (ip), vehicle: saline with Tween-80
  T/C: 96 % of control

## CC1=CC2C3C(=O)NC(=O)C3C1C1C3C(=O)NC(=O)C3C21 (stereo not drawn)
dose: 60.0 mg/kg/injection, schedule: Q01DX005 (ip), vehicle: saline with Tween-80
  T/C: 98 % of control
dose: 120.0 mg/kg/injection, schedule: Q01DX005 (ip), vehicle: saline with Tween-80
  T/C: 104 % of control
dose: 240.0 mg/kg/injection, schedule: Q01DX005 (ip), vehicle: saline with Tween-80
  T/C: 95 % of control

## CC(C)CC(N)C(=O)NC(Cc1c[nH]c2ccccc12)C(N)=O (stereo not drawn)
dose: 50.0 mg/kg/injection, schedule: Q01DX009 (ip), vehicle: saline
  T/C: 93 % of control
dose: 100.0 mg/kg/injection, schedule: Q01DX009 (ip), vehicle: saline
  T/C: 98 % of control
dose: 200.0 mg/kg/injection, schedule: Q01DX009 (ip), vehicle: saline
  T/C: 99 % of control
